Assay results reported in patent US8889874B2, “Imidazolone-chalcone derivatives as potential anticancer agent and process for the preparation thereof” (Council of Scientific and Industrial Research, priority 2010, dated 2014).
Where two headings read alike, the source gives them in different places.

How the values were obtained:
Experiment in all cases: NCI anticancer screen, SRB assay, 48 h
Assay type in all cases: cell-based, human
[1] = system: A549/ATCC (non-small cell lung); settings: Homo sapiens
How it was run: (§1)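 Compounds were tested across fifty three human cancer cell lines from nine tumour types. Each line got a dose-response curve of at least five concentrations at 10-fold dilutions, with continuous drug exposure and sulforhodamine B protein staining to estimate viability or growth.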

[2] = system: ACHN (renal); settings: Homo sapiens
How it was run: as §1

[3] = system: CAKI-1 (renal); settings: Homo sapiens
How it was run: as §1

[4] = system: COLO 205 (colon); settings: Homo sapiens, COLO 205
How it was run: as §1

[5] = system: EKVX (non-small cell lung); settings: Homo sapiens
How it was run: as §1

[6] = system: HCT-116 (colon); settings: Homo sapiens
How it was run: as §1

[7] = system: HOP-62 (non-small cell lung); settings: Homo sapiens
How it was run: as §1

[8] = system: HT29 (colon); settings: Homo sapiens
How it was run: as §1

[9] = system: KM12 (colon); settings: Homo sapiens
How it was run: as §1

[10] = system: M14 (melanoma); settings: Homo sapiens
How it was run: as §1

[11] = system: MALME-3M (melanoma); settings: Homo sapiens
How it was run: as §1

[12] = system: NCI-H226 (non-small cell lung); settings: Homo sapiens
How it was run: as §1

[13] = system: NCI-H23 (non-small cell lung); settings: Homo sapiens
How it was run: as §1

[14] = system: NCI-H322M (non-small cell lung); settings: Homo sapiens
How it was run: as §1

[15] = system: NCI-H522 (non-small cell lung); settings: Homo sapiens
How it was run: as §1

[16] = system: NCI/ADR-RES (ovarian); settings: Homo sapiens, NCI/ADR-RES
How it was run: as §1

[17] = system: OVCAR-3 (ovarian); settings: Homo sapiens
How it was run: as §1

[18] = system: OVCAR-4 (ovarian); settings: Homo sapiens
How it was run: as §1

[19] = system: OVCAR-8 (ovarian); settings: Homo sapiens
How it was run: as §1

[20] = system: RPMI-8226 (leukemia cell line); settings: Homo sapiens
How it was run: as §1

[21] = system: RXF 393 (renal); settings: Homo sapiens
How it was run: as §1

[22] = system: SK-MEL-2 (melanoma); settings: Homo sapiens
How it was run: as §1

[23] = system: SK-MEL-28 (melanoma); settings: Homo sapiens
How it was run: as §1

[24] = system: SK-OV-3 (ovarian); settings: Homo sapiens
How it was run: as §1

[25] = system: SNB-19 (CNS); settings: Homo sapiens
How it was run: as §1

[26] = system: SNB-75 (CNS); settings: Homo sapiens
How it was run: as §1

[27] = system: TD-47D (breast); settings: Homo sapiens
How it was run: as §1

[28] = system: UACC-257 (melanoma); settings: Homo sapiens
How it was run: as §1

[29] = system: UACC-62 (melanoma); settings: Homo sapiens
How it was run: as §1

[30] = system: UO-31 (renal); settings: Homo sapiens
How it was run: as §1

[31] = 48 h exposure, SRB, read-out: GI50
[32] = read-out: pGI50 (-log of molar concentration causing 50% inhibition of net cell growth) (converted)

## COc1ccc(-c2cn(-c3cccc(C(=O)/C=C/c4ccc(O)c(OC)c4)c3)c(=O)[nH]2)cc1 [3b, 1-3-[(E)-3-(4-hydroxy-3-methoxyphenyl)-2-propenoyl]phenyl-4-(4-methoxyphenyl)-2,3-dihydro-1H-2-imidazolone]
[1]; [31]
  GI50: 4.14 µM
[1]; [32]
  GI50: 4.17 µM
[2]; [31]
  GI50: 3.4 µM
[2]; [32]
  GI50: 3.39 µM
[3]; [31]
  GI50: 4.99 µM
[3]; [32]
  GI50: 5.01 µM
[4]; COLO205, read-out: pGI50 (-log of molar concentration causing 50% inhibition of net cell growth) (converted)
  GI50: 6.61 µM
[4]; [31]
  GI50: 6.61 µM
[5]; [31]
  GI50: 13.4 µM
[5]; [32]
  GI50: 13.5 µM
[6]; [31]
  GI50: 1.93 µM
[6]; [32]
  GI50: 1.95 µM
[7]; [31]
  GI50: 5.15 µM
[7]; [32]
  GI50: 5.13 µM
[8]; HT-29, 48 h exposure, SRB, read-out: GI50
  GI50: 3.84 µM
[8]; HT-29, read-out: pGI50 (-log of molar concentration causing 50% inhibition of net cell growth) (converted)
  GI50: 3.8 µM
[9]; [31]
  GI50: 1.77 µM
[9]; [32]
  GI50: 1.78 µM
[10]; [31]
  GI50: 5.14 µM
[10]; [32]
  GI50: 5.13 µM
[11]; Malme-3M, read-out: pGI50 (-log of molar concentration causing 50% inhibition of net cell growth) (converted)
  GI50: 4.47 µM
[11]; MALME-3M, 48 h exposure, SRB, read-out: GI50
  GI50: 4.42 µM
[12]; [31]
  GI50: 4.1 µM
[12]; [32]
  GI50: 4.07 µM
[13]; [31]
  GI50: 2.85 µM
[13]; [32]
  GI50: 2.82 µM
[14]; [31]
  GI50: 8.2 µM
[14]; [32]
  GI50: 8.13 µM
[15]; [31]
  GI50: 3.48 µM
[15]; [32]
  GI50: 3.47 µM
[16]; NCl/ADR-RES, 48 h exposure, SRB, read-out: GI50
  GI50: 2.56 µM
[16]; [32]
  GI50: 2.57 µM
[17]; [31]
  GI50: 2.7 µM
[17]; [32]
  GI50: 2.69 µM
[18]; [31]
  GI50: 6.08 µM
[18]; [32]
  GI50: 6.03 µM
[19]; [31]
  GI50: 4.97 µM
[19]; [32]
  GI50: 5.01 µM
[20]; [31]
  GI50: 1.35 µM
[20]; [32]
  GI50: 1.35 µM
[21]; RXF 393, 48 h exposure, SRB, read-out: GI50
  GI50: 5.85 µM
[21]; RXF-393, read-out: pGI50 (-log of molar concentration causing 50% inhibition of net cell growth) (converted)
  GI50: 5.89 µM
[22]; [31]
  GI50: 5.54 µM
[22]; [32]
  GI50: 5.5 µM
[23]; [31]
  GI50: 2.03 µM
[23]; [32]
  GI50: 2.04 µM
[24]; [31]
  GI50: 4.77 µM
[24]; [32]
  GI50: 4.79 µM
[25]; [31]
  GI50: 5.84 µM
[25]; [32]
  GI50: 5.89 µM
[26]; [31]
  GI50: 4.73 µM
[26]; [32]
  GI50: 4.68 µM
[27]; [31]
  GI50: 3.6 µM
[27]; [32]
  GI50: 3.63 µM
[28]; [31]
  GI50: 13.3 µM
[28]; [32]
  GI50: 13.2 µM
[29]; [31]
  GI50: 3.96 µM
[29]; [32]
  GI50: 3.98 µM
[30]; [31]
  GI50: 5.19 µM
[30]; [32]
  GI50: 5.25 µM
